What was measured:
[1] = system: Human AML MV-4-11 cells; test: Inhibition of cell proliferation in cancer cell lines (CellTiter Aqueous One); assay type: cell-based; conditions: MV4-11 cells, 72 h; for IC50: Homo sapiens
Method: MV4-11 cells (CRL-9591) were plated at a density of 5×10^4 cells per well in 96 well flat bottom plates and treated with increasing concentrations of test compound or DMSO (0.1%) in IMDM media containing 10% FBS and penicillin/streptomycin. Triplicate wells were used for each concentration and a well containing only media was used as a control. Plates were incubated at 37° C., 5% CO2 for 72 h before adding 20 μL of the CellTiter Aqueous One Solution (Promega) to each well and incubated at 37° C., 5% CO2 for an additional 3-4 h. The absorbance was read at 490 nm in a spectrophotometer and the percentage of cell titer relative to DMSO-treated cells was calculated after correcting for background by subtracting the blank well's signal. IC50 values were calculated using the GraphPad Prism software.

[2] = molecular target: T1, Brd4 bromodomain 1 (BRD4(1)) (Homo sapiens, UniProt O60885); test: Inhibition of tetra-acetylated histone H4 binding to BET bromodomain (HTRF/FRET); conditions: His-tagged bromodomain 200 nM, tetra-acetylated histone H4 peptide, 2 h room temperature
T1 construct: made in house; host or cells: E. coli BL21(DE3)
Method: Proteins were cloned and overexpressed with a N-terminal 6× His tag, then purified by nickel affinity followed by size exclusion chromatography. Briefly, E. coli BL21(DE3) cells were transformed with a recombinant expression vector encoding N-terminally Nickel affinity tagged bromodomains from Brd2, Brd3, Brd4. Cell cultures were incubated at 37° C. with shaking to the appropriate density and induced overnight with IPTG. The supernatant of lysed cells was loaded onto Ni-IDA column for purification. Eluted protein was pooled, concentrated and further purified by size exclusion chromatography. Fractions representing monomeric protein were pooled, concentrated, aliquoted, and frozen at −80° C. for use in subsequent experiments.
Binding of tetra-acetylated histone H4 and BET bromodomains was confirmed by a Homogenous Time Resolved Fluorescence Resonance Energy Transfer (HTRF®) method. N-terminally His-tagged bromodomains (200 nM) and biotinylated tetra-acetylated historic H4 peptide (25-50 nM, Millipore) were incubated in the presence of Europium Cryptate-labeled streptavidin (Cisbio Cat. #610SAKLB) and XL665-labeled monoclonal anti-His antibody (Cisbio Cat. #61HISXLB) in a white 96 well microtiter plate (Greiner). For inhibition assays, serially diluted test compound was added to these reactions in a 0.2% final concentration of DMSO. Duplicate wells were used for each concentration tested. Final buffer concentrations were 30 mM HEPES pH 7.4, 30 mM NaCl, 0.3 mM CHAPS, 20 mM phosphate pH 7.0, 320 mM KF, 0.08% BSA. After a 2 h incubation at room temperature, fluorescence was measured at 665 and 620 nm with a SynergyH4 plate reader (Biotek). The binding inhibitory activity was shown by a decrease in 665 nm relative to […] fluorescence. IC50 values were determined from a dose response curve.

[3] = system: c-myc in Human AML MV4-11 cells; test: Inhibition of cMYC expression in cancer cell lines (mRNA, real-time PCR); assay type: cell-based; conditions: 3 h, cMYC mRNA normalized to Cyclophilin; for IC50: Homo sapiens
Method: MV4-11 cells (CRL-9591) were plated at a density of 2.5×10^4 cells per well in 96 well U-bottom plates and treated with increasing concentrations of test compound or DMSO (0.1%) in IMDM media containing 10% FBS and penicillin/streptomycin, and incubated for 3 h at 37° C. Triplicate wells were used for each concentration. Cells were pelleted by centrifugation and harvested using the mRNA Catcher PLUS kit according to manufacturer's instructions. The eluted mRNA isolated was then used in a one-step quantitative real-time PCR reaction, using components of the RNA UltraSense™ One-Step Kit (Life Technologies) together with Applied Biosystems TaqMan® primer-probes for cMYC and Cyclophilin. Real-time PCR plates were run on a ViiA™ 7 real time PCR machine (Applied Biosystems), data was analyzed, normalizing the Ct values for cMYC to an internal control, prior to determining the fold expression of each sample, relative to the control.

[4] = system: hIL-6 mRNA; test: Inhibition of hIL-6 mRNA transcription in LPS-stimulated U937 cells; assay type: cell-based; conditions: Homo sapiens, U-937; PMA-differentiated U937 cells, 1 h pretreatment, LPS 1 ug/mL, 3 h; read-out: IL-6 activity
Method: Human leukemic monocyte lymphoma U937 cells (CRL-1593.2) were plated at a density of 3.2×10^4 cells per well in a 96-well plate in 100 μL RPMI-1640 containing 10% FBS and penicillin/streptomycin, and differentiated into macrophages for 3 days in 60 ng/mL PMA ([…]) at 37° C. in 5% CO2 prior to the addition of compound. The cells were pretreated for 1 h with increasing concentrations of test compound in 0.1% DMSO prior to stimulation with 1 ug/mL lipopolysaccharide from Escherichia coli. Triplicate wells were used for each concentration. The cells were incubated at 37° C., 5% CO2 for 3 h before the cells were harvested. At time of harvest, media was removed and cells were rinsed in 200 μL PBS. Cells were harvested using the mRNA Catcher PLUS kit according to manufacturer's instructions. The eluted mRNA was then used in a one-step quantitative real-time PCR reaction using components of the RNA UltraSense™ One-Step Kit (Life Technologies) together with Applied Biosystems TaqMan® primer-probes for hIL-6 and Cyclophilin. Real-time PCR plates were run on a ViiA™ 7 real time PCR machine (Applied Biosystems), data was analyzed, normalizing the Ct values for hIL-6 to an internal control, prior to determining the fold expression of each sample, relative to the control.

[5] = system: hIL-17 mRNA; test: Inhibition of hIL-17 mRNA transcription in OKT3-stimulated peripheral blood mononuclear cells; assay type: cell-based; conditions: human PBMC, 1 h pretreatment, OKT3 antibody, 6 h; read-out: IL-17 activity
Method: Human peripheral blood mononuclear cells were plated (2.0×10^5 cells per well) in a 96-well plate in 45 μL. OpTimizer T Cell expansion media (Life Technologies) containing 20 ng/ml IL-2 and penicillin/streptomycin. The cells were treated with increasing concentrations of the test compound or DMSO (0.1%), and incubated at 37° C., 5% CO2 for 1 h before addition of 10× stock OKT3 antibody at 10 ug/ml in media. Triplicate wells were used for each concentration. Cells were incubated at 37° C., 5% CO2 for 6 h before the cells were harvested. At time of harvest, cells were pelleted by centrifugation at 800 rpm for 5 min. Cells were harvested using the mRNA Catcher PLUS kit according to manufacturer's instructions. The eluted mRNA was then used in a one-step quantitative real-time PCR reaction, using components of the RNA UltraSense™ One-Step Kit (Life Technologies) together with Applied Biosystems TaqMan® primer-probes for hIL-17 and Cyclophilin. Real-time PCR plates were run on a ViiA™ 7 real time PCR machine (Applied Biosystems), data was analyzed, normalizing the Ct values for hIL-17 to an internal control, prior to determining the fold induction of each unknown sample, relative to the control.

Row | Structure (SMILES) | IC50 [1] [nM] | IC50 [2] [nM] | IC50 [4] [nM] | IC50 [5] [nM] | IC50 [3] [nM] | Cell Proliferation activity [1] | c-myc activity [3]
1 | Cc1noc(C)c1-c1c[nH]c(=O)c(NCc2ccccc2)c1 [Example 4, 3-(benzylamino)-5-(3,5-dimethylisoxazol-4-yl)pyridin-2(1H)-one] | 300 to 3000 | ≤ 300 | 300 to 3000 | 300 to 3000 | 300 to 3000 |  | 
2 | Cc1noc(C)c1-c1c[nH]c(=O)c(OCc2ccccc2)c1 [Example 14, 3-(benzyloxy)-5-(3,5-dimethylisoxazol-4-yl)pyridin-2(1H)-one] | 3000 to 30000 | 300 to 3000 | 300 to 3000 |  | 3000 to 30000 |  | 
3 | Cc1noc(C)c1-c1c[nH]c(=O)c(NCc2ccccn2)c1 [Example 17, 5-(3,5-dimethylisoxazol-4-yl)-3-((pyridin-2-ylmethyl)amino)pyridin-2(1H)-one] | 3000 to 30000 | ≤ 300 | 300 to 3000 | 300 to 3000 | 300 to 3000 |  | 
4 | Cc1noc(C)c1-c1c[nH]c(=O)c(OCc2ccc(F)cc2)c1 [Example 27, 5-(3,5-dimethylisoxazol-4-yl)-3-((4-fluorobenzyl)oxy)pyridin-2(1H)-one] | 3000 to 30000 | 300 to 3000 | 300 to 3000 |  | 300 to 3000 |  | 
5 | Cc1noc(C)c1-c1c[nH]c(=O)c(NCc2nccs2)c1 [Example 30, 5-(3,5-dimethylisoxazol-4-yl)-3-((thiazol-2-ylmethyl)amino)pyridin-2(1H)-one] | 300 to 3000 | ≤ 300 | 300 to 3000 |  | 3000 to 30000 |  | 
6 | Cc1noc(C)c1-c1c[nH]c(=O)c(NCc2ccc3ccccc3c2)c1 [Example 33, 5-(3,5-dimethylisoxazol-4-yl)-3-((naphthalen-2-ylmethyl)amino)pyridin-2(1H)-one] | 3000 to 30000 | 300 to 3000 | 300 to 3000 |  | 3000 to 30000 |  | 
7 | Cc1noc(C)c1-c1c[nH]c(=O)c(NCc2ncccc2Cl)c1 [Example 37, 3-(((3-chloropyridin-2-yl)methyl)amino)-5-(3,5-dimethylisoxazol-4-yl)pyridin-2(1H)-one] |  | 300 to 3000 | 300 to 3000 |  |  | Not Active | Not Active
8 | Cc1noc(C)c1-c1c[nH]c(=O)c(NCc2cccc3ncccc23)c1 [Example 39, 5-(3,5-dimethylisoxazol-4-yl)-3-((quinolin-5-ylmethyl)amino)pyridin-2(1H)-one] | 300 to 3000 | ≤ 300 | ≤ 300 |  | 300 to 3000 |  | 

More lines, main results first:

Row | IC50 [1] [nM] | IC50 [2] [nM] | IC50 [4] [nM] | IC50 [5] [nM] | Structure (SMILES) | IC50 [3] [nM] | Cell Proliferation activity [1] | c-myc activity [3]
9 | 300 to 3000 | ≤ 300 | 300 to 3000 | 300 to 3000 | Cc1noc(C)c1-c1c[nH]c(=O)c(NC(C)c2ccccn2)c1 (stereo not shown) [Example 20, 5-(3,5-dimethylisoxazol-4-yl)-3-((1-(pyridin-2-yl)ethyl)amino)pyridin-2(1H)-one] | 300 to 3000 |  | 
10 | 300 to 3000 | ≤ 300 | 300 to 3000 |  | Cc1noc(C)c1-c1c[nH]c(=O)c(NCc2ccc(F)cc2)c1 [Example 21, 5-(3,5-dimethylisoxazol-4-yl)-3-((4-fluorobenzyl)amino)pyridin-2(1H)-one] | 300 to 3000 |  | 
11 |  | ≤ 300 | 3000 to 30000 |  | Cc1noc(C)c1-c1c[nH]c(=O)c(NCc2ccc(I)cc2)c1 [Example 24, 5-(3,5-dimethylisoxazol-4-yl)-3-((4-iodobenzyl)amino)pyridin-2(1H)-one] |  | Not Active | Not Active
12 | 300 to 3000 | ≤ 300 | 300 to 3000 |  | Cc1noc(C)c1Nc1cc(-c2c(C)noc2C)c[nH]c1=O [Example 34, 5-(3,5-dimethylisoxazol-4-yl)-3-((3,5-dimethylisoxazol-4-yl)amino)pyridin-2(1H)-one] | 300 to 3000 |  | 
13 | 300 to 3000 | ≤ 300 | 300 to 3000 |  | Cc1noc(C)c1-c1c[nH]c(=O)c(NCc2ccc3ccccc3n2)c1 [Example 35, 5-(3,5-dimethylisoxazol-4-yl)-3-((quinolin-2-ylmethyl)amino)pyridin-2(1H)-one] | 3000 to 30000 |  | 
14 | 3000 to 30000 | ≤ 300 | 300 to 3000 |  | Cc1noc(C)c1-c1c[nH]c(=O)c(NCc2ccc(C#N)s2)c1 [Example 36, 5-(((5-(3,5-dimethylisoxazol-4-yl)-2-oxo-1,2-dihydropyridin-3-yl)amino)methyl)thiophene-2-carbonitrile] | 3000 to 30000 |  | 
15 | 3000 to 30000 | 300 to 3000 | 300 to 3000 |  | Cc1noc(C)c1-c1c[nH]c(=O)c(NCc2nc3ccccc3s2)c1 [Example 40, 3-((benzo[d]thiazol-2-ylmethyl)amino)-5-(3,5-dimethylisoxazol-4-yl)pyridin-2(1H)-one] | 300 to 3000 |  | 
16 |  | 300 to 3000 | 3000 to 30000 |  | Cc1ncccc1Oc1cc(-c2c(C)noc2C)cnc1O [Example 43, 5-(3,5-dimethylisoxazol-4-yl)-3-((2-methylpyridin-3-yl)oxy)pyridin-2-ol] |  | Not Active | Not Active
